Square brackets hold non-standard residues; d marks the D form. Peptide text beside a SMILES is read from it. Aib = CC(C)(N)C(=O)O
Tests used:
[1] = biological target: T1, human GLP-1 receptor (Homo sapiens, UniProt P43220); experiment: GLP-1 receptor potency assay (cAMP AlphaScreen, HEK293 cells stably expressing GLP-1R); format: cell-based; details: cAMP response, HEK293 cells expressing human GLP-1R; read-out: EC50 GLP-1
T1 construct: expressed in transfected cells
Procedure, shortened: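 A HEK293 clone stably expressing cloned human GLP-1R (G418-selected) was stimulated with compound. Intracellular cAMP was measured by AlphaScreen. Responses were normalized to positive and vehicle controls, and EC50 and maximal response were fitted by 4-parameter logistic regression.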

[2] = biological target: T2, human GLP-2 receptor (Homo sapiens, UniProt O95838, D470N); experiment: GLP-2 receptor potency assay (cAMP AlphaScreen, HEK293 cells stably expressing GLP-2R); format: cell-based; details: cAMP response, HEK293 cells expressing human GLP-2R
T2 sequence (O95838 1-553 D470N): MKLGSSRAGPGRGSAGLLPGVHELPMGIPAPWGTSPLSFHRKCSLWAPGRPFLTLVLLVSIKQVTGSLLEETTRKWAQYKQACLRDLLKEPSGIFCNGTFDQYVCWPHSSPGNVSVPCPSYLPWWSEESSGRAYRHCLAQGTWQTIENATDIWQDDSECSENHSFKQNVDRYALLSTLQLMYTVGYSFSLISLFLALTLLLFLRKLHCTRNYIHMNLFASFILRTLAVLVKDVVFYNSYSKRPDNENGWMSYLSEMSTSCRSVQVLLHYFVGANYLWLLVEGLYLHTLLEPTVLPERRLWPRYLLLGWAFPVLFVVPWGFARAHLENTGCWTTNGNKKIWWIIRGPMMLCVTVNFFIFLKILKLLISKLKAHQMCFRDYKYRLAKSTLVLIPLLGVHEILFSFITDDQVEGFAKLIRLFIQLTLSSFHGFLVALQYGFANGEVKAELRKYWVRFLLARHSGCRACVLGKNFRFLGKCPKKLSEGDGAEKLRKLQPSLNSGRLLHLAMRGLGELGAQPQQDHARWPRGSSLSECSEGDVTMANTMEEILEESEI
Procedure, shortened: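 HEK293 cells stably expressing human GLP-2R (G418-selected clone); intracellular cAMP measured by AlphaScreen. Responses normalized to positive and vehicle controls; EC50 and maximal response from 4-parameter logistic fit.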

T1 sequence (P43220 24-463): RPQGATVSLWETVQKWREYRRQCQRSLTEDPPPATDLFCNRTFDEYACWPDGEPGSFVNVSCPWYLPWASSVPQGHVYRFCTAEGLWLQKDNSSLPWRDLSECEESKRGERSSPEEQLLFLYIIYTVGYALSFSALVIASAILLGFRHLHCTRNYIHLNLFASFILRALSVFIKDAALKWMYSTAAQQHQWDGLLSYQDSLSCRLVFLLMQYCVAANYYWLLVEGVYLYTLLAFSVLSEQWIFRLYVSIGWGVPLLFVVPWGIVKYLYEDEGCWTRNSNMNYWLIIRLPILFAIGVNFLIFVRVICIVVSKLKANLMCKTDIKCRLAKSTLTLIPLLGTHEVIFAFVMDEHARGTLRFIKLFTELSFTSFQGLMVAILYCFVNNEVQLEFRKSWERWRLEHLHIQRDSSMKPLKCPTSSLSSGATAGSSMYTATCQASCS

Row | Compound | EC50 [1] [pM] | EC50 [2] [pM]
1 | CC[C@H](C)[C@H](NC(=O)[C@H](CC(C)C)NC(=O)[C@H](Cc1c[nH]c2ccccc12)NC(=O)[C@H](C)NC(=O)[C@@H](NC(=O)[C@H](Cc1ccccc1)NC(=O)[C@H](CC(=O)O)NC(=O)[C@H](CCCNC(=N)N)NC(=O)[C@H](C)NC(=O)[C@H](C)NC(=O)[C@H](CCCCN)NC(=O)CNC(=O)[C@H](CC(=O)O)NC(=O)[C@H](CC(C)C)NC(=O)[C@@H](NC(=O)[C@@H](NC(=O)[C@H](C)NC(=O)[C@H](CC(C)C)NC(=O)[C@H](CCC(=O)O)NC(=O)[C@H](CO)NC(=O)[C@H](CO)NC(=O)[C@H](Cc1ccccc1)NC(=O)[C@@H](NC(=O)CNC(=O)[C@H](CCC(=O)O)NC(=O)C(C)(C)NC(=O)[C@@H](N)Cc1c[nH]cn1)[C@@H](C)O)[C@@H](C)O)[C@@H](C)CC)[C@@H](C)CC)C(=O)N[C@@H](C)C(=O)N[C@@H](Cc1c[nH]cn1)C(=O)N[C@@H](CCCCN)C(=O)N[C@H](C(=O)N[C@H](C(=O)N[C@@H](CC(=O)O)C(=O)O)[C@@H](C)O)[C@@H](C)CC [Compound 32] (H-H[Aib]EGTFSSELATILDGKAARDFIAWLIAHKITD-OH) | 38 | 150
2 | CC[C@H](C)[C@H](NC(=O)[C@H](Cc1ccccc1)NC(=O)[C@H](CC(=O)O)NC(=O)[C@H](CCCNC(=N)N)NC(=O)[C@H](C)NC(=O)[C@H](C)NC(=O)[C@H](CCC(N)=O)NC(=O)[C@H](CCC(=O)O)NC(=O)[C@H](CC(=O)O)NC(=O)[C@H](CC(C)C)NC(=O)[C@@H](NC(=O)[C@@H](NC(=O)[C@H](C)NC(=O)[C@H](CC(C)C)NC(=O)[C@H](CCC(=O)O)NC(=O)[C@H](CO)NC(=O)[C@@H](NC(=O)[C@H](Cc1ccccc1)NC(=O)[C@@H](NC(=O)CNC(=O)[C@H](CCC(=O)O)NC(=O)C(C)(C)NC(=O)[C@@H](N)Cc1c[nH]cn1)[C@@H](C)O)[C@@H](C)O)[C@@H](C)O)[C@@H](C)CC)C(=O)N[C@@H](CC(N)=O)C(=O)N[C@@H](Cc1c[nH]c2ccccc12)C(=O)N[C@@H](CC(C)C)C(=O)N[C@@H](CCCCN)C(=O)N[C@@H](CO)C(=O)N[C@@H](Cc1ccc(O)cc1)C(=O)N[C@@H](CCCCN)C(=O)N[C@H](C(=O)N[C@H](C(=O)N[C@@H](CC(=O)O)C(=O)O)[C@@H](C)O)[C@@H](C)CC [Compound 36] (H-H[Aib]EGTFTSELATILDEQAARDFINWLKSYKITD-OH) | 7 | 110
3 | CC[C@H](C)[C@H](NC(=O)[C@H](Cc1ccccc1)NC(=O)[C@H](CC(=O)O)NC(=O)[C@H](CCCNC(=N)N)NC(=O)[C@H](C)NC(=O)[C@H](C)NC(=O)[C@H](CCC(N)=O)NC(=O)[C@H](CCC(=O)O)NC(=O)[C@H](CC(=O)O)NC(=O)[C@H](CC(C)C)NC(=O)[C@@H](NC(=O)[C@@H](NC(=O)[C@H](C)NC(=O)[C@H](CC(C)C)NC(=O)[C@H](CCC(=O)O)NC(=O)[C@H](CO)NC(=O)[C@@H](NC(=O)[C@H](Cc1ccccc1)NC(=O)[C@@H](NC(=O)CNC(=O)[C@H](CCC(=O)O)NC(=O)C(C)(C)NC(=O)[C@@H](N)Cc1c[nH]cn1)[C@@H](C)O)[C@@H](C)O)[C@@H](C)O)[C@@H](C)CC)C(=O)N[C@@H](CC(N)=O)C(=O)N[C@@H](Cc1c[nH]c2ccccc12)C(=O)N[C@@H](CC(C)C)C(=O)N[C@@H](CCCCN)C(=O)N[C@@H](CCC(=O)O)C(=O)N[C@@H](CCC(N)=O)C(=O)N[C@@H](CCCCN)C(=O)N[C@H](C(=O)N[C@H](C(=O)N[C@@H](CC(=O)O)C(=O)O)[C@@H](C)O)[C@@H](C)CC [Compound 37] (H-H[Aib]EGTFTSELATILDEQAARDFINWLKEQKITD-OH) | 7 | 160
4 | CC[C@H](C)[C@H](NC(=O)[C@H](Cc1ccccc1)NC(=O)[C@H](CC(=O)O)NC(=O)[C@H](CCCNC(=N)N)NC(=O)[C@H](C)NC(=O)[C@H](C)NC(=O)[C@H](CCC(N)=O)NC(=O)[C@H](CCC(=O)O)NC(=O)[C@H](CC(=O)O)NC(=O)[C@H](CC(C)C)NC(=O)[C@@H](NC(=O)[C@@H](NC(=O)[C@H](C)NC(=O)[C@H](CC(C)C)NC(=O)[C@H](CCC(=O)O)NC(=O)[C@H](CO)NC(=O)[C@H](CO)NC(=O)[C@H](Cc1ccccc1)NC(=O)[C@H](CO)NC(=O)CNC(=O)[C@H](CCC(=O)O)NC(=O)C(C)(C)NC(=O)[C@@H](N)Cc1c[nH]cn1)[C@@H](C)O)[C@@H](C)CC)C(=O)N[C@@H](C)C(=O)N[C@@H](Cc1c[nH]c2ccccc12)C(=O)N[C@@H](CC(C)C)C(=O)N[C@H](C(=O)N[C@@H](CCC(N)=O)C(=O)N[C@@H](Cc1c[nH]cn1)C(=O)N[C@@H](CCCCN)C(=O)N[C@H](C(=O)N[C@H](C(=O)N[C@@H](CC(=O)O)C(=O)O)[C@@H](C)O)[C@@H](C)CC)[C@@H](C)CC [Compound 41] (H-H[Aib]EGSFSSELATILDEQAARDFIAWLIQHKITD-OH) | 78 | 26

More lines, now with the values ahead:

Row | EC50 [1] [pM] | EC50 [2] [pM] | Compound
5 | 20 | 78 | CC[C@H](C)[C@H](NC(=O)[C@H](CC(C)C)NC(=O)[C@H](Cc1c[nH]c2ccccc12)NC(=O)[C@H](C)NC(=O)[C@@H](NC(=O)[C@H](Cc1ccccc1)NC(=O)[C@H](CC(=O)O)NC(=O)[C@H](CCCNC(=N)N)NC(=O)[C@H](C)NC(=O)[C@H](C)NC(=O)[C@H](CCCCN)NC(=O)CNC(=O)[C@H](CC(=O)O)NC(=O)[C@H](CC(C)C)NC(=O)[C@@H](NC(=O)[C@@H](NC(=O)[C@H](C)NC(=O)[C@H](CC(C)C)NC(=O)[C@H](CCC(=O)O)NC(=O)[C@H](CO)NC(=O)[C@@H](NC(=O)[C@H](Cc1ccccc1)NC(=O)[C@H](CO)NC(=O)CNC(=O)[C@H](CCC(=O)O)NC(=O)C(C)(C)NC(=O)[C@@H](N)Cc1c[nH]cn1)[C@@H](C)O)[C@@H](C)O)[C@@H](C)CC)[C@@H](C)CC)C(=O)N[C@@H](C)C(=O)N[C@@H](Cc1c[nH]cn1)C(=O)N[C@@H](CCCCN)C(=O)N[C@H](C(=O)N[C@H](C(=O)N[C@@H](CC(=O)O)C(=O)O)[C@@H](C)O)[C@@H](C)CC [Compound 31] (H-H[Aib]EGSFTSELATILDGKAARDFIAWLIAHKITD-OH)
6 | 4 | 41 | CC[C@H](C)[C@H](NC(=O)[C@H](CC(C)C)NC(=O)[C@H](Cc1c[nH]c2ccccc12)NC(=O)[C@H](CC(N)=O)NC(=O)[C@@H](NC(=O)[C@H](Cc1ccccc1)NC(=O)[C@H](CC(=O)O)NC(=O)[C@H](CCCNC(=N)N)NC(=O)[C@H](C)NC(=O)[C@H](C)NC(=O)[C@H](CCC(N)=O)NC(=O)[C@H](CCC(=O)O)NC(=O)[C@H](CC(=O)O)NC(=O)[C@H](CC(C)C)NC(=O)[C@@H](NC(=O)[C@@H](NC(=O)[C@H](C)NC(=O)[C@H](CC(C)C)NC(=O)[C@H](CCC(=O)O)NC(=O)[C@H](CO)NC(=O)[C@@H](NC(=O)[C@H](Cc1ccccc1)NC(=O)[C@@H](NC(=O)CNC(=O)[C@H](CCC(=O)O)NC(=O)C(C)(C)NC(=O)[C@@H](N)Cc1c[nH]cn1)[C@@H](C)O)[C@@H](C)O)[C@@H](C)O)[C@@H](C)CC)[C@@H](C)CC)C(=O)N[C@@H](C)C(=O)N[C@@H](Cc1c[nH]cn1)C(=O)N[C@@H](CCCCN)C(=O)N[C@H](C(=O)N[C@H](C(=O)N[C@@H](CC(=O)O)C(=O)O)[C@@H](C)O)[C@@H](C)CC [Compound 33] (H-H[Aib]EGTFTSELATILDEQAARDFINWLIAHKITD-OH)
7 | 1400 | 50 | H-HGEGSFSSELATILDEQAARDFIAWLIQHKITD-NH2 [Compound 40]

Source: patent US11130793B2, “GLP-1/GLP-2 dual agonists” (Zealand Pharma A/S, priority 2016, dated 2021)
